Reference: US10894768B2, “Salt of (R)-(1-methylpyrrolidine-3-yl)methyl(3′-chloro-4′-fluoro-[1,1′-biphenyl]-2-yl)carbamate and crystal form thereof” (Dong-A St Co., Ltd., priority 2016, dated 2021)

Experiments:
Assay type in all cases: physicochemical
[1] = Accelerated stability in the solid state (accelerated test, 40° C./RH 75%); conditions: for Property / Relative purity (%): 40° C./RH 75%; for Change in purity / Physical state: under the accelerated condition
Method: (§1) 4. Liquid Chromatography (HPLC)
(§2) Detector: Ultraviolet absorptiometer (detection wavelength of 244 nm)
(§3) Column: Waters, XBridge C18, 4.6*150 mm, 5 um
(§4) Column temperature: 40° C.
(§5) Mobile phase buffer: A 0.01M (NH4)HCO3 solution was prepared and adjusted to pH 10.5 by means of ammonia water.
(§6) Mobile phase A: Buffer:Acetonitrile=8:2
(§7) Mobile phase B: Acetonitrile
(§8) Sample solution: 1.0 mg/mL in 50% methanol

[2] = Stress stability in a solid state (stress test)
Method: as §1, §2, §3, §4, §5, §6, §7, §8

[3] = Accelerated and stress stability of forms I, II and III; conditions: for Crystal form / Relative purity (%): oxalate; for Stability: under the accelerated and stress conditions
Method: X-ray powder diffraction (XRPD) pattern was obtained by means of a solid-phase detector of BRUKER D8 ADVANCE model using CuKα radiation at 1.54178 Å (40 kV, 40 mA). An analysis was performed through measurement at an angle 2θ in a range of 3° to 50° with a step size of 0.02°.
as §1, §2, §3, §4, §5, §6, §7, §8
The accelerated test (accelerated condition: 40° C./RH 75%) and the stress test (stress condition: 60° C.) were performed on the form I of (R)-(1-methylpyrrolidine-3-yl)methyl(3′-chloro-4′-fluoro-[1,1′-biphenyl]-2-yl)carbamate oxalate prepared in Example 2 above and the form II of (R)-(1-methylpyrrolidine-3-yl)methyl(3′-chloro-4′-fluoro-[1,1′-biphenyl]-2-yl)carbamate oxalate and the form III of (R)-(1-methylpyrrolidine-3-yl)methyl(3′-chloro-4′-fluoro-[1,1′-biphenyl]-2-yl)carbamate oxalate prepared in Examples 3 and 9, wherein analysis results thereof were shown in Table 3.

Molecule | Property ([1]; Week 1) | Relative purity (%) ([1]; Week 1) | Property ([1]; Week 2) | Relative purity (%) ([1]; Week 2) | Property ([1]; Week 3) | Relative purity (%) ([1]; Week 3) | Property ([1]; Week 4) | Relative purity (%) ([1]; Week 4) | Property ([1]; initial) | Relative purity (%) ([1]; initial) | Change in purity [1] | Property ([2]; 60° C., Week 1) | Relative purity ([2]; 60° C., Week 1) | Property ([2]; 60° C., Week 2) | Relative purity ([2]; 60° C., Week 2) | Property ([2]; RH 90%, Week 1) | Relative purity ([2]; RH 90%, Week 1) | Property ([2]; RH 90%, Week 2) | Relative purity ([2]; RH 90%, Week 2) | Property ([2]; initial) | also measured
CN1CC[C@@H](COC(=O)Nc2ccccc2-c2ccc(F)c(Cl)c2)C1.O=C(O)C(=O)O [Oxalate, (R)-(1-methylpyrrolidine-3-yl)methyl(3′-chloro-4′-fluoro-[1,1′-biphenyl]-2-yl)carbamate oxalate] | Solid | 99.3% | Solid | 99.3% | Solid | 99.3% | Solid | 99.3% | Solid | 99.3% | do not show a change in purity | Solid | 99.3/ % | Solid | 99.4/ % | Solid | 99.3/ % | Solid | 99.4/ % | Solid | Relative purity ([2]; initial): 99.3/ %; Change in purity ([2]; under the stress condition): do not show a change in purity; Physical state ([2]; under the stress condition): kept in an unmelted state
CN1CC[C@@H](COC(=O)Nc2ccccc2-c2ccc(F)c(Cl)c2)C1.O=P(O)(O)O [Phosphate] | Dissolved | 98.3% | Dissolved | 98.3% | Dissolved | 98.4% | Dissolved | 98.4% | Solid | 98.4% | do not show a change in purity | Dissolved | 98.4/ % | Dissolved | 98.4/ % | Dissolved | 98.4/ % | Dissolved | 98.4/ % | Solid | Physical state [1]: show a melting phenomenon; Relative purity ([2]; initial): 98.4/ %; Change in purity ([2]; under the stress condition): do not show a change in purity
CN1CC[C@@H](COC(=O)Nc2ccccc2-c2ccc(F)c(Cl)c2)C1.O=C(O)C(=O)O [form I, (R)-(1-methylpyrrolidine-3-yl)methyl(3′-chloro-4′-fluoro-[1,1′-biphenyl]-2-yl)carbamate oxalate] | – | – | – | – | – | – | – | – | – | – | – | – | – | – | – | – | – | – | – | – | Crystal form ([3]; 40° C./RH 75% Week 1): form I; Relative purity (%) ([3]; 40° C./RH 75% Week 1): 99.55%; Crystal form ([3]; 40° C./RH 75% Week 3): form I; Relative purity (%) ([3]; 40° C./RH 75% Week 3): 99.60%; Crystal form ([3]; 60° C. Week 1): form I; Relative purity (%) ([3]; 60° C. Week 1): 99.71%; Crystal form ([3]; 60° C. Week 3): form I; Relative purity (%) ([3]; 60° C. Week 3): 99.61%; Crystal form ([3]; Early): form I; Relative purity (%) ([3]; Early): 99.66%; Stability [3]: stable
CN1CC[C@@H](COC(=O)Nc2ccccc2-c2ccc(F)c(Cl)c2)C1.O=C(O)C(=O)O [form II, (R)-(1-methylpyrrolidine-3-yl)methyl(3′-chloro-4′-fluoro-[1,1′-biphenyl]-2-yl)carbamate oxalate] | – | – | – | – | – | – | – | – | – | – | – | – | – | – | – | – | – | – | – | – | Crystal form ([3]; 40° C./RH 75% Week 1): form II; Relative purity (%) ([3]; 40° C./RH 75% Week 1): 99.83%; Crystal form ([3]; 40° C./RH 75% Week 3): form II; Relative purity (%) ([3]; 40° C./RH 75% Week 3): 99.81%; Crystal form ([3]; 60° C. Week 1): form II; Relative purity (%) ([3]; 60° C. Week 1): 99.85%; Crystal form ([3]; 60° C. Week 3): form II; Relative purity (%) ([3]; 60° C. Week 3): 99.79%; Crystal form ([3]; Early): form II; Relative purity (%) ([3]; Early): 99.87%; Stability [3]: stable
CN1CC[C@@H](COC(=O)Nc2ccccc2-c2ccc(F)c(Cl)c2)C1.O=C(O)C(=O)O [form III, (R)-(1-methylpyrrolidine-3-yl)methyl(3′-chloro-4′-fluoro-[1,1′-biphenyl]-2-yl)carbamate oxalate] | – | – | – | – | – | – | – | – | – | – | – | – | – | – | – | – | – | – | – | – | Crystal form ([3]; 40° C./RH 75% Week 1): form III; Relative purity (%) ([3]; 40° C./RH 75% Week 1): 99.79%; Crystal form ([3]; 40° C./RH 75% Week 3): form III; Relative purity (%) ([3]; 40° C./RH 75% Week 3): 99.80%; Crystal form ([3]; 60° C. Week 1): form III; Relative purity (%) ([3]; 60° C. Week 1): 99.82%; Crystal form ([3]; 60° C. Week 3): form III; Relative purity (%) ([3]; 60° C. Week 3): 99.79%; Crystal form ([3]; Early): form III; Relative purity (%) ([3]; Early): 99.81%; Stability [3]: stable
(R)-(1-methylpyrrolidine-3-yl)methyl(3′-chloro-4′-fluoro-[1,1′-biphenyl]-2-yl)carbamate citrate | Solid | 97.7% | Solid | 97.6% | Dissolved | 97.7% | Dissolved | 97.4% | Solid | 97.7% | do not show a change in purity | Dissolved | 97.8/ % | Dissolved | 97.9/ % | Dissolved | 97.7/ % | Dissolved | 97.7/ % | Solid | Physical state [1]: show a melting phenomenon; Relative purity ([2]; initial): 97.7/ %; Change in purity ([2]; under the stress condition): do not show a change in purity
